According to patent US4959375A, “Piperidine derivatives useful as 5-HT3 antagonists” (John Wyeth & Brothers Limited, priority 1988, dated 1990):

Biological target: T1, 5-HT3 receptors (Oryctolagus cuniculus, UniProt A0A5F9C9J3)
T1 construct: 5-HT3 receptors present on sympathetic nerve terminals in the heart; from tissue; host or cells: isolated right atrium of the rabbit heart
T1 sequence (A0A5F9C9J3 1-494): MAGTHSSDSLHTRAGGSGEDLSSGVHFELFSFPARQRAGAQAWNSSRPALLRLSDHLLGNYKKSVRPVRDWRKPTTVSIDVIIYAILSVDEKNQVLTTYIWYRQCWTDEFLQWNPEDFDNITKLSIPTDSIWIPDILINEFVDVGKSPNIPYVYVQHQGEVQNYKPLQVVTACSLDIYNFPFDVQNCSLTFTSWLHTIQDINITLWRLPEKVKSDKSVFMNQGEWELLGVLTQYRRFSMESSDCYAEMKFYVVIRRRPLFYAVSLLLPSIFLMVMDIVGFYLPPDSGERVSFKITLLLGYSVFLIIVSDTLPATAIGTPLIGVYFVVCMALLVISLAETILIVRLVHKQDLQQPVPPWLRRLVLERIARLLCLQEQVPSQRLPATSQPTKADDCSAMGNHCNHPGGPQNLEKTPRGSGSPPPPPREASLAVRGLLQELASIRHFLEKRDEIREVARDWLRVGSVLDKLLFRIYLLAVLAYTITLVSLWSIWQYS
Assay: 5-HT3 antagonistic activity in the isolated right atrium of the rabbit heart
Conditions: chronotropic response to 10^-5 M 5-HT, read-out: -log IC50 (IC50 is the concentration of antagonist which reduces the chronotropic response to 10^-5 M 5-HT by 50%) (converted)
Protocol: The compounds of the invention are tested for 5-HT3 antagonistic activity in the isolated right atrium of the rabbit heart based upon the method of Fozard J. R., Naunyn Schmiedeberg's Arch. Pharmacol., 1984, 326, 36-44. This procedure relies upon the ability of 5-HT to stimulate 5-HT3 receptors present on sympathetic nerve terminals in the heart, causing release of noradrenaline which evokes an increase in the spontaneous rate of beating. The antagonist potency is expressed as -log IC50 (where IC50 is the concentration of antagonist which reduces the chronotropic response to 10^--5 M 5-HT by 50%).

Structure (SMILES) | IC50 [nM]
CN(C)C1CCCN(C(=O)c2c[nH]c3ccccc23)C1 (centres unmarked) [Example 1, 3-Dimethylamino-1-[[(1H)-indol 3 yl]carbonyl]piperidine] | 20
CN(C)C1CCCN(C(=O)c2n[nH]c3ccccc23)C1 (centres unmarked) [Example 4, 3-Dimethylamino-1-[[(1H)-indazol 3 yl]carbonyl]piperidine] | 7.94
